Tests used:
HepG2 [1] = assay: Cytotoxicity against human HepG2 cells assessed as cell growth inhibition at 3.125 to 100 uM incubated for 72 hrs and measured after 2 hrs by microplate reader based WST-1 assay relative to control; assay type: functional
HeLa [2] = assay: Cytotoxicity against human HeLa cells assessed as cell growth inhibition at 3.125 to 100 uM incubated for 72 hrs and measured after 2 hrs by microplate reader based WST-1 assay relative to control; assay type: functional
HCT-116 [3] = assay: Cytotoxicity against human HCT116 cells assessed as cell growth inhibition at 3.125 to 100 uM incubated for 72 hrs and measured after 2 hrs by microplate reader based WST-1 assay relative to control; assay type: functional
MCF7 [4] = assay: Cytotoxicity against human MCF7 cells assessed as cell growth inhibition at 3.125 to 100 uM incubated for 72 hrs and measured after 2 hrs by microplate reader based WST-1 assay relative to control; assay type: functional
HepG2 [5] = assay: Cytotoxicity against human HepG2 cells assessed as increase in growth inhibition by measuring decrease in cell viability incubated for 72 hrs and measured after 2 hrs by microplate reader based WST-1 assay; assay type: functional
HeLa [6] = assay: Cytotoxicity against human HeLa cells assessed as increase in growth inhibition by measuring decrease in cell viability incubated for 72 hrs and measured after 2 hrs by microplate reader based WST-1 assay; assay type: functional
HCT-116 [7] = assay: Cytotoxicity against human HCT116 cells assessed as increase in growth inhibition by measuring decrease in cell viability incubated for 72 hrs and measured after 2 hrs by microplate reader based WST-1 assay; assay type: functional
MCF7 [8] = assay: Cytotoxicity against human MCF7 cells assessed as increase in growth inhibition by measuring decrease in cell viability incubated for 72 hrs and measured after 2 hrs by microplate reader based WST-1 assay; assay type: functional
[9] = molecular target: T1, Epidermal growth factor receptor (Homo sapiens, UniProt P00533); assay: Inhibition of EGFR-TK in human MCF7 cells overexpressing EGFR incubated for 18 to 24 hrs by kinase assay; assay type: cell-based
T1 sequence (P00533 whole entry): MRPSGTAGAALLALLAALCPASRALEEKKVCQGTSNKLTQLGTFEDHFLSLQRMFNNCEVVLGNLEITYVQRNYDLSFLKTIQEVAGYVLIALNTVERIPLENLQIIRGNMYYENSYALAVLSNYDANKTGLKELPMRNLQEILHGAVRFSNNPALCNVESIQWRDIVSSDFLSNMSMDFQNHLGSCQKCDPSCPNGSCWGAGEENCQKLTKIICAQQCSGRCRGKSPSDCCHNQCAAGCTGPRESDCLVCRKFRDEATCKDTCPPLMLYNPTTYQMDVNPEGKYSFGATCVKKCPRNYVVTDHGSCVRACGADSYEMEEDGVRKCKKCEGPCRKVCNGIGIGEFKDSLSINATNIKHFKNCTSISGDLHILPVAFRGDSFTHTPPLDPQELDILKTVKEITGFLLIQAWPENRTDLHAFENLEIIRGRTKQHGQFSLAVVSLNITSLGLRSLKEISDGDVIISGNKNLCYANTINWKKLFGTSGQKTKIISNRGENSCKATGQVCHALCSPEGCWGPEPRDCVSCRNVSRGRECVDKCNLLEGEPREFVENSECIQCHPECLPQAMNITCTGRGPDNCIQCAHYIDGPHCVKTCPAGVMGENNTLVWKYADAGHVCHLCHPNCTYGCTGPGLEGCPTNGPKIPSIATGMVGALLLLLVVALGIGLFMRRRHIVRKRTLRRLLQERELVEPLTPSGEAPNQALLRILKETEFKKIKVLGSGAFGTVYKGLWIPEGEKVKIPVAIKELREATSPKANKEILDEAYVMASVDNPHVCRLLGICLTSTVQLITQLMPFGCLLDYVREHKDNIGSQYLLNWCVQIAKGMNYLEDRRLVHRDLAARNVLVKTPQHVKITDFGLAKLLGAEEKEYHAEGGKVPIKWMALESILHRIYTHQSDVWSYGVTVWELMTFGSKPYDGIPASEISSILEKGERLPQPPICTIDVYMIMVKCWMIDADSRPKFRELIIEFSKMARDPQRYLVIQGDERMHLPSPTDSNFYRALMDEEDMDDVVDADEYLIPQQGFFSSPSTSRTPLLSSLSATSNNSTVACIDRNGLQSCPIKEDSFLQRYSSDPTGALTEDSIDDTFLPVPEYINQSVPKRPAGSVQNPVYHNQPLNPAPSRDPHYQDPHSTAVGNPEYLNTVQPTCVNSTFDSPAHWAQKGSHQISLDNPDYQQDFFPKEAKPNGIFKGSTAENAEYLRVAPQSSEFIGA

MCF7 [10] = assay: Induction of apoptosis in human MCF7 cells assessed as increase in caspase 3 activation by measuring fold increase in caspase 3 level by fluorescence based solid phase sandwich ELISA; assay type: functional
MCF7 [11] = assay: Induction of apoptosis in human MCF7 cells assessed as increase in caspase 9 activation by measuring fold increase in caspase 9 level by fluorescence based solid phase sandwich ELISA; assay type: functional
MCF7 [12] = assay: Cell cycle arrest in human MCF7 cells assessed as accumulation at G0/G1 phase at IC50 after 24 hrs by propidium iodide staining based FACS analysis (reference value: 67.39%); assay type: functional
MCF7 [13] = assay: Cell cycle arrest in human MCF7 cells assessed as accumulation at S phase at IC50 after 24 hrs by propidium iodide staining based FACS analysis (reference value: 27.13%); assay type: functional
MCF7 [14] = assay: Cell cycle arrest in human MCF7 cells assessed as accumulation at G2/M phase at IC50 after 24 hrs by propidium iodide staining based FACS analysis (reference value: 4.82%); assay type: functional
MCF7 [15] = assay: Cell cycle arrest in human MCF7 cells assessed as accumulation at pre G1/apoptotic phase at IC50 after 24 hrs by propidium iodide staining based FACS analysis (reference value: 0.66%); assay type: functional
MCF7 [16] = assay: Induction of apoptosis in human MCF7 cells after 24 hrs by Annexin V-FITC/propidium iodide staining-based FACS analysis; assay type: functional, cell-based
MCF7 [17] = assay: Induction of apoptosis in human MCF7 cells assessed as viable cells after 24 hrs by Annexin V-FITC/propidium iodide staining-based FACS analysis (reference value: 99.34%); assay type: functional
MCF7 [18] = assay: Induction of apoptosis in human MCF7 cells assessed as early apoptotic cells after 24 hrs by Annexin V-FITC/propidium iodide staining-based FACS analysis (reference value: 0.29%); assay type: functional
MCF7 [19] = assay: Induction of apoptosis in human MCF7 cells assessed as late apoptotic cells after 24 hrs by Annexin V-FITC/propidium iodide staining-based FACS analysis (reference value: 0.22%); assay type: functional
MCF7 [20] = assay: Induction of apoptosis in human MCF7 cells assessed as necrotic cells after 24 hrs by Annexin V-FITC/propidium iodide staining-based FACS analysis (reference value: 0.15%); assay type: functional
DNA topoisomerase II [21] = molecular target: T2, DNA topoisomerase II (Homo sapiens, UniProt P11388+Q02880); assay: Inhibition of DNA topoisomerase 2 in human MCF7 cells at 25 uM incubated for 18 to 24 hrs by kinase assay relative to control; assay type: cell-based
DNA topoisomerase II [22] = molecular target: T2, DNA topoisomerase II; assay: Inhibition of DNA topoisomerase 2 in human MCF7 cells at 1 uM incubated for 18 to 24 hrs by kinase assay relative to control; assay type: cell-based
DNA topoisomerase II [23] = molecular target: T2, DNA topoisomerase II; assay: Inhibition of DNA topoisomerase 2 in human MCF7 cells at 0.2 uM incubated for 18 to 24 hrs by kinase assay relative to control; assay type: cell-based
DNA topoisomerase II [24] = molecular target: T2, DNA topoisomerase II; assay: Inhibition of DNA topoisomerase 2 in human MCF7 cells incubated for 18 to 24 hrs by kinase assay; assay type: cell-based
DNA topoisomerase II [25] = molecular target: T2, DNA topoisomerase II; assay: Inhibition of DNA topoisomerase 2 in human MCF7 cells at 5 uM incubated for 18 to 24 hrs by kinase assay relative to control; assay type: cell-based
HeLa [26] = assay: Induction of apoptosis in human HeLa cells assessed as increase in caspase 9 activation by measuring fold increase in caspase 9 level by fluorescence based solid phase sandwich ELISA; assay type: functional
[27] = molecular target: T1, Epidermal growth factor receptor; assay: Inhibition of EGFR-TK in human HeLa cells overexpressing EGFR incubated for 18 to 24 hrs by kinase assay; assay type: cell-based
HeLa [28] = assay: Induction of apoptosis in human HeLa cells assessed as increase in caspase 3 activation by measuring fold increase in caspase 3 level by fluorescence based solid phase sandwich ELISA; assay type: functional
DNA topoisomerase II [29] = molecular target: T2, DNA topoisomerase II; assay: Inhibition of DNA topoisomerase 2 in human HeLa cells at 25 uM incubated for 18 to 24 hrs by kinase assay relative to control; assay type: cell-based
DNA topoisomerase II [30] = molecular target: T2, DNA topoisomerase II; assay: Inhibition of DNA topoisomerase 2 in human HeLa cells at 5 uM incubated for 18 to 24 hrs by kinase assay relative to control; assay type: cell-based
DNA topoisomerase II [31] = molecular target: T2, DNA topoisomerase II; assay: Inhibition of DNA topoisomerase 2 in human HeLa cells at 1 uM incubated for 18 to 24 hrs by kinase assay relative to control; assay type: cell-based
DNA topoisomerase II [32] = molecular target: T2, DNA topoisomerase II; assay: Inhibition of DNA topoisomerase 2 in human HeLa cells at 0.2 uM incubated for 18 to 24 hrs by kinase assay relative to control; assay type: cell-based
DNA topoisomerase II [33] = molecular target: T2, DNA topoisomerase II; assay: Inhibition of DNA topoisomerase 2 in human HeLa cells incubated for 18 to 24 hrs by kinase assay; assay type: cell-based
[34] = Homo sapiens, HeLa, read-out: IC50
[35] = Homo sapiens, MCF7, read-out: IC50
[36] = Homo sapiens, HepG2, read-out: IC50
[37] = Homo sapiens, HCT-116, read-out: IC50

Structure (SMILES) | growth inhibition (GI) (HepG2 [1]) | growth inhibition (GI) (HeLa [2]) | growth inhibition (GI) (HCT-116 [3]) | growth inhibition (GI) (MCF7 [4]) | IC50 (HeLa [6]; [34]) | IC50 (MCF7 [8]; [35]) | IC50 (HCT-116 [7]; [37]) | further results
Fc1ccc(COC(c2cccs2)c2cc3ccccc3nc2Cl)cc1 (stereo not drawn) | 30.53% | 66.21% | <10% | 64.97% | 73.9 µM | 38.4 µM | – | IC50 (HepG2 [5]; hepg2): Not Active; IC50 (HCT-116 [7]; hct-116): Not Active; IC50 [9]: 2.75 µM; fold change (FC) (MCF7 [10]): 30.8; fold change (FC) (MCF7 [11]): 40.6; Activity (MCF7 [12]): 47.2%; Activity (MCF7 [13]): 17.19%; Activity (MCF7 [14]): 19.33%; Activity (MCF7 [15]): 16.28%; Activity (MCF7 [16]): Dose-dependent effect; Activity (MCF7 [17]): 83.96%; Activity (MCF7 [18]): 7.03%; Activity (MCF7 [19]): 8.42%; Activity (MCF7 [20]): 0.83%; inhibition (DNA topoisomerase II [21]): 93.7%; inhibition (DNA topoisomerase II [22]): 70.8%; inhibition (DNA topoisomerase II [23]): 43.3%; IC50 (DNA topoisomerase II [24]): 0.23 µM; inhibition (DNA topoisomerase II [25]): 88.5%
Cc1cc(C)c(COC(c2cccs2)c2cc3ccccc3nc2Cl)c(C)c1 (stereo not drawn) | 24.76% | 42.48% | 26.37% | 21.49% | – | – | – | –
FC(F)(F)c1cccc(COC(c2cccs2)c2cc3ccccc3nc2Cl)c1 (stereo not drawn) | <10% | 42.42% | 23.22% | 52.9% | – | 101 µM | – | IC50 (HepG2 [5]; hepg2): Not Active; IC50 (HeLa [6]; hela): Not Active; IC50 (HCT-116 [7]; hct-116): Not Active
O=c1[nH]cc(F)c(=O)[nH]1 [FLUOROURACIL] | – | – | – | – | 20.4 µM | > 100 µM | 63.9 µM | IC50 (HepG2 [5]; [36]): > 100 µM; fold change (FC) (HeLa [26]): 94.4; fold change (FC) (MCF7 [11]): 26 - 26.1
Clc1nc2ccccc2cc1C(OCc1ccc(Br)cc1)c1cccs1 (stereo not drawn) | <10% | 30.89% | 21.98% | <10% | – | – | – | –
C#CCOC(c1cccs1)c1cc2ccccc2nc1Cl (stereo not drawn) | – | – | – | – | 34.7 µM | > 100 µM | > 100 µM | IC50 (HepG2 [5]; [36]): > 100 µM
COc1ccc(-n2cc(COC(c3cccs3)c3cc4ccccc4nc3Cl)nn2)cc1 (stereo not drawn) | <10% | <10% | 32.52% | <10% | – | – | – | –
Clc1ccc(-n2cc(COC(c3cccs3)c3cc4ccccc4nc3Cl)nn2)cc1 (stereo not drawn) | 8.39% | <10% | 23.13% | <10% | – | – | – | –
Cc1ccc(-c2cc(COC(c3cccs3)c3cc4ccccc4nc3Cl)on2)cc1 (stereo not drawn) | 31.77% | <10% | 43.91% | 22.03% | – | – | 115 µM | IC50 (HepG2 [5]; hepg2): Not Active; IC50 (HeLa [6]; hela): Not Active; IC50 (MCF7 [8]; mcf7): Not Active
OC(c1cccs1)c1cc2ccccc2nc1Cl (stereo not drawn) | – | – | – | – | 17.5 µM | 80.6 µM | 69.3 µM | IC50 (HepG2 [5]; [36]): 80.8 µM; IC50 [27]: 6.3 µM; fold change (FC) (HeLa [28]): 12.8; fold change (FC) (HeLa [26]): 72.6; inhibition (DNA topoisomerase II [29]): 80.7%; inhibition (DNA topoisomerase II [30]): 45%; inhibition (DNA topoisomerase II [31]): 20%; inhibition (DNA topoisomerase II [32]): 3.85%; IC50 (DNA topoisomerase II [33]): 4.95 µM
COc1ccc(-c2cc(COC(c3cccs3)c3cc4ccccc4nc3Cl)on2)cc1 (stereo not drawn) | 17.93% | <10% | 20.31% | <10% | – | – | – | –
